Data on 4 compounds can be found in PMC7076650, “Co-Encapsulation of Mitoxantrone and β-Elemene in Solid Lipid Nanoparticles to Overcome Multidrug Resistance in Leukemia” (Pharmaceutics, 2020).

In brackets after ≈: the same amount, converted by molar mass. Where two headings read alike, the source gives them in different places.

Data set [1] has as its system K562/DOX cells. Put plainly: Intracellular ATP production assay. The class given is cell-based. To be noted: 8 h at 37 °C. On the procedure: An ATP assay kit was used to measure the intracellular ATP. K562/DOX cells at a density of 1 × 10^5 cells/well were seeded and cultured in 12-well plates and incubated for 24 h. The cells were then incubated with fresh medium containing MTO, MTO/βE, MTO-SLNs, and MTO/βE-SLNs for 8 h at 37 °C. The cell ATP content was determined based on the manufacturer’s protocol. Briefly, the cells were collected and lysed by 200 μL of lysis solution to obtain the cell lysate, followed by centrifugation at 12,000× g for 5 min at 4 °C. Next, 20 μL of the supernatant of each sample was mixed with 100 μL of ATP testing solution in a black 96-well plate, and kept for 10 min. A microplate luminometer (Luminoskan, Thermo Scientific, Waltham, MA, USA) was used to measure the luminescence intensity. The raw data were converted to ATP concentrations using the standard ATP calibration.

Data set [2] has as its system K562/DOX cells. Put plainly: MTT assay of combinatorial effects of MTO and βE in different mass ratios. The format is cell-based. To be noted: Homo sapiens, 48 h of incubation. On the procedure: The combinatorial effects of MTO and βE in different ratios (w/w) were assessed against K562/DOX through MTT assay. With a density of 5 × 10^3 cells/well, K562/DOX cells were seeded in 96-well plates and incubated for 48 h, then treated with different concentrations of MTO dissolved in the free medium of RPMI-1640, βE dissolved in the mixture of (RPMI-1640 and 0.5% DMSO), and different combination mass ratios of MTO/βE (10:1, 5:1, 2:1, 1:1, 1:2, 1:5, and 1:10 w/w). After 48 h of incubation, cells were washed twice with cold PBS, and then incubated again for 4 h with 20 µL of MTT solution (5 mg/mL) added to each well. In order to solubilize the formazan crystals, 150 μL of DMSO per well was added to replace the medium. Finally, a Microplate Reader (Biotech, Winooski, VT, USA) was used to measure the UV absorbance intensity at 570 nm. Each measurement was performed in triplicate. The cell viability percentage was evaluated using the following equation: Cell Viability (%)=ODsample /ODcontrol×100% where ODSample stands for the optical density (absorbance intensity) of the cells treated with MTO, βE, or MTO in combination with βE, while ODControl is the absorbance intensity of the untreated cells. […] The synergistic effect of different combinations of MTO and βE was assessed through the calculation of combination index (CI) using the equation of Chou and Talalay. […]

The subject of data set [3] is K562/DOX cells. The data set is described as follows: MTT cytotoxicity of MTO formulations in K562/DOX cells. The class given is cell-based. As to conditions: for IC50: Homo sapiens, K562/DOX cells, n = 3. On the procedure:
(§1) A cytotoxicity study of MTO, MTO/βE, MTO-SLNs, and MTO/βE-SLNs was also carried out by MTT assay in both K562 and K562/DOX cells lines. K562 cells and K562/DOX cells were seeded in a 96-well plate at a density of 5 × 10^3 cells/well and incubated for 48 h. Then, the cells were treated with MTO, MTO/βE, MTO-SLNs, and MTO/βE-SLNs at different doses (total amount of MTO in SLNs: 0.01, 0.1, 1, 2.5, 5, and 10 μg/mL in K562 cells and 0.1, 1, 10, 20, 40, and 80 μg/mL in K562/DOX cells for 48 h. After 48 h of incubation, cells were washed twice with cold PBS then incubated again for 4 h with 20 µL of MTT solution (5 mg/mL) added to each well. In order to solubilize the formazan crystals, 150 μL of DMSO per well was added to replace the medium. Finally, a Microplate Reader (Biotech) was used to measure the UV absorbance intensity at 570 nm. Each measurement was performed in triplicate. The cell viability percentage was evaluated using the following equation [4, 10]: Cell Viability (%)=ODsample /ODcontrol×100% where ODsample stands for the absorbance intensity of the cells treated with MTO, MTO/βE, MTO-SLNs, and MTO/βE-SLNs, while ODControl is the absorbance intensity of the untreated cells. The 50% inhibition concentrations (IC50) of different agents were calculated by Graph Pad Prism 5.0 software. All experiments were in triplicate and the results were given as means ± SD.
(§2) The different effects of drug formulations on K562/DOX were evaluated in the MDR reversal capacities through the index of drug resistance (IDR) and index of reversal of drug resistance (IRDR). IDR and IRDR were calculated as follows: IDR=IC50of other formulation against K562/DOX cells/IC50of MTO against K562 CellsIRDR=IC50of MTO against K562 cells /IC50of other formulation against K562/DOX cells

The next data set deals with K562 cells. Put plainly: MTT cytotoxicity of MTO formulations in K562 cells. The class given is cell-based. To be noted: n = 3; for IC50: Homo sapiens, K562, 48 h. How it is done:
as §1, §2

A short description of data set [4]: Pharmacokinetics after intravenous administration. The class given is in vivo, SD rats. As to conditions: rats; for AUC(0-t) / Cmax / half-life: male, Sprague-Dawley (SD), rat, plasma; for time post injection after which no drug was observed in plasma: free drug. How it is done: All the preparations were administered intravenously into the tail vein at a dose of 2 mg/kg (n = 6) for MTO and 4 mg/kg (n = 6) for βE. The blood samples were taken with a heparinized syringe at 0.5, 1, 2, 4, 6, 8, 12, and 24 h.

The test system of data set [5] is K562/DOX xenografts tumors. Put plainly: In vivo antitumor activity in K562/DOX xenograft tumor model. To be noted: during treatment, compared with saline. More on the design: species or system BALB/c nude mice. How it is done: Mice bearing K562/DOX xenografts tumors were used to evaluate different MTO formulations through an in vivo antitumor efficacy study. K562/DOX cells at a concentration of 1 × 10^7 cells/mice with a volume of 200 μL were injected into the left axilla of BALB/c nude mice. After inoculation of cells, the growth of tumor was observed every two days by measuring the diameter of tumor with Vernier caliper. The tumor volume was calculated as (L × W^2)/2, where L and W are the tumor length and width, respectively. The anti-tumor evaluation was started when tumor volume reached about 100 mm^3, and this day was designated as day 0. Mice were randomly divided in five groups of six: Saline, MTO, MTO/βE, MTO-SLNs, and MTO/βE-SLNs (MTO dosage: 2 mg/kg and βE dosage: 4 mg/kg). The injections were carried out on days 0, 3, 6, 9, and 12 via the tail vein. In order to evaluate the treatment efficacy and safety, mice were sacrificed, and then tumors, heart, lung, liver, kidney, and spleen were dissected and fixed in 4% paraformaldehyde. In order to observe the pathological changes in different tissues, samples were cut and stained with hematoxylin and eosin (H&E) for histological analyses. An optical microscope (Leica DMI6000 B, Wetzlar, Germany) was used to take different photos. […]

The test system of data set [6] is K562/DOX cells. Put plainly: Drug efflux study (DOX retained, flow cytometry), K562/DOX cells. The class given is cell-based. As to conditions: 10 μg/mL DOX loaded 4 h at 37 °C, then free medium. How it is done: In order to determine DOX efflux, K562 and K562/DOX cells were seeded and incubated in 12-well plates (1 × 10^5 cells/well). Different DOX formulations diluted with fresh medium to a concentration of 10 μg/mL were incubated with K562 and K562/DOX cells for 4 h at 37 °C. Subsequently, the cells were washed three times with ice-cold PBS, and then incubated with free medium at another 0.5, 1, 2, and 4 h. Ice-cold PBS was used to wash the cells at the end of each incubation time. The amounts of DOX retained in cells were determined by flow cytometry. The investigation was carried out in triplicate.

The next data set relates to K562/A02 cells. More on the design: method as in PMID 29453043. As to conditions: cited from earlier work.

Take `C=CC1(C)CCC(C(=C)C)CC1C(=C)C` (stereo not shown) [βE, 1-methyl-1-vinyl-2,4-diisopropenyl-cyclohexane]: in the data set with K562/DOX cells [1], the “effect on intracellular ATP” value is given as “significant inhibitory capacity”. The IC50 turned out to be 140 µg/mL in the data set with K562/DOX cells [2] (n = 3, concentration of βE alone or in the combination, read-out: IC50 βE); 140 µg/mL (≈ 687 µM) in the data set with K562/DOX cells [3] (48 h); 122 µg/mL (≈ 598 µM) in the data set with K562 cells. The AUC(0-t) in data set [4] (4 mg/kg βE, n = 6, read-out: AUC0–24 of βE) was 4860 ± 1760 ng·h/mL. In addition, the Cmax in data set [4] (4 mg/kg βE, n = 6, read-out: Cmax of βE) is 6680 ± 1210 ng/mL. Moreover, in data set [4] (4 mg/kg βE, n = 6, read-out: T1/2 of βE (converted)), the half-life was 2.9 ± 0.45 h. Besides, in data set [4], the “time post injection after which no drug was observed in plasma” value is 12 h.
Consider `Cl.Cl.O=C1c2c(O)ccc(O)c2C(=O)c2c(NCCNCCO)ccc(NCCNCCO)c21` [MTO, 1,4-dihydroxy-5,8-bis[[2-[(2-hydroxyethyl)amino]ethyl]amino] anthraquinone dihydrochloride], for which the “body weight of mice” value in data set [5] is listed as “decreased remarkably”. Also, the IC50 was determined as 48.2 µg/mL with K562/DOX cells [2] (n = 3, concentration of MTO alone or in the combination, read-out: IC50 MTO); 48.2 µg/mL with K562/DOX cells [3] (48 h); 5.02 µg/mL in the data set on K562 cells. The “cell survival rate of K562/DOX cells” value in the data set on K562/DOX cells [3] (concentration of MTO 10 μg/mL, 48 h) was 81.43%. Also, the “survival ratio in K562/DOX cells” value in the data set on K562/DOX cells [3] (concentration of MTO 80 μg/mL, 48 h) was determined as 24.06%. Moreover, the “IDR (index of drug resistance)” value in the data set with K562/DOX cells [3] (from IC50 in K562/DOX and K562 cells) is recorded as 9.59. Further, the “IC50 K562” value in the data set with K562 cells (48 h) was 5.025 µg/mL. The AUC(0-t) in data set [4] (2 mg/kg MTO, n = 6, read-out: AUC0–24 of MTO) came out at 1180 ± 150 ng·h/mL. The Cmax in data set [4] (2 mg/kg MTO, n = 6, read-out: Cmax of MTO) is 3450 ± 580 ng/mL. In data set [4] (2 mg/kg MTO, n = 6, read-out: T1/2 of MTO (converted)), the half-life is 1.53 ± 0.33 h. For the same compound, in data set [4], the “time post injection after which no drug was observed in plasma” value was found to be 6 h.
Regarding `COc1cccc2c1C(=O)c1c(O)c3c(c(O)c1C2=O)C[C@@](O)(C(=O)CO)C[C@@H]3O[C@H]1C[C@H](N)[C@H](O)[C@H](C)O1` [DOX, doxorubicin], in the data set on K562/DOX cells [6], the “DOX that underwent efflux” value is on record as “about 90%”.
In the case of ethyl lucidenates-A, the “reversal of resistance of K562/A02 cells to vincristine” value in the data set on K562/A02 cells is 7.59 fold.
